Among the data in PubChem BioAssay AID1918999 (Molecular Pharmacology Branch, DTP, NCI, 2023) are IC50 and viability, T/C values, retold here.

The test system of this assay is 556581-035-R-J1-PDC complex spheroid growth. As to the kind of experiment: Anticancer human tumor 556581-035-R-J1-PDC patient-derived ovarian carcinoma cell line growth inhibition [AhR]. Conditions: for viability, T/C: stronger effect = lower value. In a few lines: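 Spheroids combined tumor cells with HUVEC endothelial cells and human MSCs as stroma. AhR antagonists were paired with standard or investigational drugs, each dosed in half-log steps down from near clinical Cmax, or from 10 microM where Cmax was unknown.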

The mark [1] stands for this setting: curve of first compound, second compound 0.1 µM.
[2] abbreviates: curve of first compound, second compound 0.316 µM.
Where [3] appears, read: curve of first compound, second compound 1 µM.
[4] abbreviates: curve of first compound, second compound 3.16 µM.
[5] abbreviates: curve of first compound, second compound 10 µM.
Where [6] appears, read: second compound 0.1 µM, first compound 0.00316 µM.
Setting [7] is: second compound 0.1 µM, first compound 0.01 µM.
Setting [8] is: second compound 0.1 µM, first compound 0.0316 µM.
The mark [9] stands for this setting: second compound 0.1 µM, first compound 0.1 µM.
Where [10] appears, read: second compound 0.1 µM, first compound 0.316 µM.
The mark [11] stands for this setting: second compound 0.1 µM, first compound 1 µM.
Setting [12] is: second compound 0.316 µM, first compound 0.00316 µM.
The mark [13] stands for this setting: second compound 0.316 µM, first compound 0.01 µM.
The mark [14] stands for this setting: second compound 0.316 µM, first compound 0.0316 µM.
[15] abbreviates: second compound 0.316 µM, first compound 0.1 µM.
[16] abbreviates: second compound 0.316 µM, first compound 0.316 µM.
Setting [17] is: second compound 0.316 µM, first compound 1 µM.
Where [18] appears, read: second compound 1 µM, first compound 0.00316 µM.
[19] abbreviates: second compound 1 µM, first compound 0.01 µM.
Where [20] appears, read: second compound 1 µM, first compound 0.0316 µM.
The mark [21] stands for this setting: second compound 1 µM, first compound 0.1 µM.
[22] abbreviates: second compound 1 µM, first compound 0.316 µM.
Where [23] appears, read: second compound 1 µM, first compound 1 µM.
The mark [24] stands for this setting: second compound 3.16 µM, first compound 0.00316 µM.
Setting [25] is: second compound 3.16 µM, first compound 0.01 µM.
[26] abbreviates: second compound 3.16 µM, first compound 0.0316 µM.
[27] abbreviates: second compound 3.16 µM, first compound 0.1 µM.
The mark [28] stands for this setting: second compound 3.16 µM, first compound 0.316 µM.
[29] abbreviates: second compound 3.16 µM, first compound 1 µM.
[30] abbreviates: second compound 10 µM, first compound 0.00316 µM.
Setting [31] is: second compound 10 µM, first compound 0.01 µM.
Where [32] appears, read: second compound 10 µM, first compound 0.0316 µM.
The mark [33] stands for this setting: second compound 10 µM, first compound 0.1 µM.
Setting [34] is: second compound 10 µM, first compound 0.316 µM.
Setting [35] is: second compound 10 µM, first compound 1 µM.

“And” between values parts separate entries of the source, which are not always exact repeats. Identical values can stand only once.
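Wherever viability, T/C is given: compound exposure lasted 7 days; 100% = DMSO vehicle control growth.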

For the compound `CC1COCCN1c1cc(-c2ccnn2C)c2ccnc(-c3ccn[nH]3)c2n1` (centres undefined) + Cc1cncc(-c2nc(NCCc3c[nH]c4ccccc34)c3ncn(C(C)C)c3n2)c1, the IC50 is, setting by setting: under setting [1], 0.621 µM; under setting [2], 0.518 µM; under setting [3], 0.796 µM; under setting [4], 0.76 µM; under setting [5], 0.877 µM. Further, the viability, T/C was 99.4% under setting [6]; 96.1% under setting [7]; 89.8% under setting [8]; 82.2% under setting [9]; 62.8% under setting [10]; 40.5% under setting [11]. For the same compound, the viability, T/C was 98.2% under setting [12]; 104% under setting [13]; 93.2% under setting [14]; 83% under setting [15]; 55.6% under setting [16]; 41.9% under setting [17]. In addition, the viability, T/C runs as follows: under setting [18], 100%; under setting [19], 102%; under setting [20], 101%; under setting [21], 83.8%; under setting [22], 57.4%; under setting [23], 48%. Besides, the viability, T/C reads like this: under setting [24], 101%; under setting [25], 95.1%; under setting [26], 88.6%; under setting [27], 75.7%; under setting [28], 62.4%; under setting [29], 46.2%. Moreover, the viability, T/C by setting is: under setting [30], 77.6%; under setting [31], 71.9%; under setting [32], 71.4%; under setting [33], 64.3%; under setting [34], 57.7%; under setting [35], 49%.
Regarding `COc1cc(Nc2ncc3c(n2)-c2ccc(Cl)cc2C(c2c(F)cccc2OC)=NC3)ccc1C(=O)O`, the viability, T/C is, setting by setting: (compound 0.0316 µM) 81.1% and 79.8% and 91.3%; (compound 0.1 µM) 75% and 75.9% and 76%; (compound 0.316 µM) 68.9% and 62.2% and 64.4%; (compound 1 µM) 79.5% and 64.8% and 63%; (compound 3.16 µM) 62.2% and 61.8% and 58.2%; (compound 10 µM) 54% and 52% and 52.1%. For the setting “curve of compound”, the IC50 was greater than 10 µM.
Turning to `Nc1ncn(C2CC(O)C(CO)O2)c(=O)n1` (centres undefined) + Cc1ccccc1N=Nc1ccc(NC(=O)c2ccnn2C)c(C)c1, the IC50 under setting [1] was greater than 1 µM; the IC50 under setting [2] is greater than 1 µM; the IC50 under setting [3] is greater than 1 µM; the IC50 under setting [4] was greater than 1 µM; the IC50 under setting [5] was greater than 1 µM. Besides, the viability, T/C reads like this: under setting [6], 95.9%; under setting [7], 95.5%; under setting [8], 90.4%; under setting [9], 84.7%; under setting [10], 85.1%; under setting [11], 77.4%. The viability, T/C reads like this: under setting [12], 108%; under setting [13], 98.8%; under setting [14], 85.9%; under setting [15], 89.6%; under setting [16], 78.7%; under setting [17], 74.1%. Also, the viability, T/C was 98.5% under setting [18]; 97.7% under setting [19]; 95.1% under setting [20]; 92.3% under setting [21]; 89.2% under setting [22]; 78.1% under setting [23]. The viability, T/C under setting [24] is 86.7%; the viability, T/C under setting [25] is 81.6%; the viability, T/C under setting [26] was 81%; the viability, T/C under setting [27] is 79.6%; the viability, T/C under setting [28] was 73%; the viability, T/C under setting [29] is 82.8%. For the same compound, the viability, T/C reads like this: under setting [30], 85.4%; under setting [31], 77.9%; under setting [32], 71.2%; under setting [33], 72.4%; under setting [34], 77.6%; under setting [35], 75.3%.
As to `CC[C@@]1(O)C(=O)OCc2c1cc1n(c2=O)Cc2cc3c(CN(C)C)c(O)ccc3nc2-1` + CC(CO)NC(=O)c1cc(-c2ccc(Cl)cc2)nn(-c2cnn(C)c2)c1=O, the IC50 under setting [1] is greater than 0.1 µM; the IC50 under setting [2] is greater than 0.1 µM; the IC50 under setting [3] is greater than 0.1 µM; the IC50 under setting [4] is 0.0878 µM; the IC50 under setting [5] is 0.0846 µM. Moreover, the viability, T/C runs as follows: (second compound 0.1 µM, first compound 0.000316 µM) 102%; (second compound 0.1 µM, first compound 0.001 µM) 95.5%; under setting [6], 90.4%; under setting [7], 86.8%; under setting [8], 69.7%; under setting [9], 51.7%. Further, the viability, T/C (second compound 0.316 µM, first compound 0.000316 µM) is 97.2%; the viability, T/C (second compound 0.316 µM, first compound 0.001 µM) is 98%; the viability, T/C under setting [12] is 92.9%; the viability, T/C under setting [13] is 80.6%; the viability, T/C under setting [14] is 69.5%; the viability, T/C under setting [15] was 58.6%. Further, the viability, T/C is, setting by setting: (second compound 1 µM, first compound 0.000316 µM) 101%; (second compound 1 µM, first compound 0.001 µM) 110%; under setting [18], 93.6%; under setting [19], 80.8%; under setting [20], 75%; under setting [21], 57.3%. Besides, the viability, T/C (second compound 3.16 µM, first compound 0.000316 µM) was 90.5%; the viability, T/C (second compound 3.16 µM, first compound 0.001 µM) was 97%; the viability, T/C under setting [24] was 91.4%; the viability, T/C under setting [25] was 78.2%; the viability, T/C under setting [26] was 65.9%; the viability, T/C under setting [27] is 47.8%. The viability, T/C reads like this: (second compound 10 µM, first compound 0.000316 µM) 100%; (second compound 10 µM, first compound 0.001 µM) 101%; under setting [30], 94.7%; under setting [31], 93.2%; under setting [32], 70.5%; under setting [33], 46.5%.
Consider `Nc1ccn(C2OC(CO)C(O)C2(F)F)c(=O)n1` (centres undefined), for which the viability, T/C reads like this: (compound 0.0316 µM) 32.3% and 35% and 33.6%; (compound 0.1 µM) 38.3% and 35.4% and 37.6%; (compound 0.316 µM) 32.6% and 36.3% and 46.9%; (compound 1 µM) 37.1% and 36.9% and 40.4%; (compound 3.16 µM) 39.2% and 35.1% and 36.5%; (compound 10 µM) 31.2% and 31.4% and 32.4%. For the same compound, the IC50 (curve of compound) was less than 0.0316 µM.
